# Columns and labels:
# [1] = TEAC assay (trolox equivalent antioxidant capacity), Bünger et al. method; settings: according to the Bünger et al. method
# Description: (§1) A detailed description, besides the […] just described, for the lipid assay (or 2,2′-azobis(2-aminopropane)=ABAP assay) or the TEAC assay (TEAC=trolox equivalent antioxidant capacity) is also found in Bünger et al, International Journal of Cosmetic Science, 2006, 28, 135-146.
# [2] = Photoconversion test, substance on roughened Perspex plates, sun simulation; type: physicochemical; settings: 0.75 mg/cm^−2 on roughened Perspex plates, FIG. 1
# Method: The substance is applied to roughened Perspex plates (0.75 mg/cm^−2) and irradiated under sun simulation. The dose is to be understood as the absolute, unweighted total UV irradiation dose. After each irradiation step, the UV absorption of the sample is measured against placebo (placebo=Perspex plate with glycerol).
# [3] = lipid assay (2,2'-azobis(2-aminopropane) = ABAP assay), Bünger et al. method; settings: according to the Bünger et al. method
# Description: as §1
# [4] = Photoconversion test, 4% solution in isopropyl myristate on Perspex support, simulated solar irradiation; type: physicochemical; settings: 2 μlcm^−2 on rough Perspex, Suntester 1 h 50 min, extracted with isopropanol, made up to 50 ml
# Method: A 4% solution of the substance in isopropyl myristate is applied at a rate of 2 μlcm^−2 to a rough Perspex support. The sample is subjected to simulated solar irradiation in a Suntester for 1 h 50 min. After irradiation, the sample is extracted with 40 ml of isopropanol and made up to a precise volume of 50 ml. Compared with an unirradiated sample, an increase in absorbance at the substance maximum at 285 nm of 0.77 absorption units arises.
Compound,TEAC assay [1],"UV absorption of the sample after irradiation, measured against placebo [2]",lipid assay [3],increase in absorbance at the substance maximum at 285 nm compared with an unirradiated sample [4]
"COc1ccc(C(O)c2ccccc2)c(O)c1 (stereo not shown) [Compound (5), 2-(hydroxyphenylmethyl)-5-methoxyphenol]",50%,increases in absorption power due to irradiation,8%,
"COc1ccc(C(O)c2ccccc2)cc1 (stereo not shown) [Compound (9), (4-methoxyphenyl)phenylmethanol]",,,,0.77 absorption units

# Source: patent US7906684B2, “Antioxidants” (Merck Patent Gesellschaft Mit Beschrankter Haftung, priority 2006, dated 2011)
